Laboratory results reported in patent EP2982368A1, “Small molecule compounds displacing focal adhesion core components” (Universität Konstanz, priority 2014, dated 2016).

Tests used:
focal adhesions = test: Focal adhesion dynamics by TIRF microscopy (mKate-vinculin); type: cell-based, mouse; settings: 5 µM, 40 minutes
GFP-FAK MEFs = test: Cell migration assay (single cell tracking, serum-stimulated); type: cell-based, mouse; settings: for cell velocity: serum-stimulated
Protocol: (§1) Image J was used to automatically quantify FAK-containing focal adhesions due to local maxima of fluorescence intensity in the GFP-channel (5 to 70 pixel). The number of cells was automatically counted in the Hoechst channel. To test reproducibility of the system 40 control wells were quantified wherein four positions for each well were imaged. […] GFP-FAK mouse embryonic fibroblasts were seeded on fibronectin and incubated for 1 h with the indicated concentrations of the small compounds, respectively. […] GFP-FAK mouse embryonic fibroblasts were seeded on fibronectin and serum-starved overnight. The indicated concentrations of Mb31 were applied for 30 min. Cells were lysed and analyzed for paxillin and FAK protein level as well as FAK Tyr397 phosphorylation. […] The purified kinase domain of FAK was incubated with increasing amounts of Mb31 for 1 h at 30°C together with poly-Glu-Tyr as a FAK substrate. […] Serum-starved GFP-FAK mouse embryonic fibroblasts were stimulated with normal growth medium and incubated for 5 h with the indicated concentrations of the small molecule compounds, respectively. Cell viability was assessed by MTT assay. […] GFP-FAK MEFs were seeded on fibronectin and serum-starved overnight. Migration was stimulated by replacing the medium with normal growth medium. Migration of single cells was tracked for 8 h in 30 min intervals. Migration was recorded from cells that were cultured without serum (A), with serum (B) or with serum in the presence of 3 µM Mb31 (C). […] (A) GFP-FAK MEFs were seeded and serum-starved as in Figure 10. Cell migration was stimulated with normal growth medium and single cells were tracked for 5 h. […] Mouse embryonic fibroblasts (MEFs) were transfected with talin-mCherry and talin dynamics analyzed in focal adhesions using fluorescence recovery after photobleaching (FRAP). […] (C) Wound closure was microscopically analyzed and evaluated using ImageJ software.
(§2) To further determine whether Mb31 interferes with cell motility, GFP-FAK MEFs were serum-stimulated and migration was quantified on a single cell basis (Figures 11 and 12). […]

paxillin = biological target: T1, paxillin (Mus musculus, UniProt Q8VI36); test: Paxillin displacement in FAK-deficient MEFs (immunostaining, confocal microscopy); type: cell-based
T1 construct: endogenous in cells; host or cells: FAK-/- mouse embryonic fibroblasts
T1 sequence (Q8VI36 whole entry): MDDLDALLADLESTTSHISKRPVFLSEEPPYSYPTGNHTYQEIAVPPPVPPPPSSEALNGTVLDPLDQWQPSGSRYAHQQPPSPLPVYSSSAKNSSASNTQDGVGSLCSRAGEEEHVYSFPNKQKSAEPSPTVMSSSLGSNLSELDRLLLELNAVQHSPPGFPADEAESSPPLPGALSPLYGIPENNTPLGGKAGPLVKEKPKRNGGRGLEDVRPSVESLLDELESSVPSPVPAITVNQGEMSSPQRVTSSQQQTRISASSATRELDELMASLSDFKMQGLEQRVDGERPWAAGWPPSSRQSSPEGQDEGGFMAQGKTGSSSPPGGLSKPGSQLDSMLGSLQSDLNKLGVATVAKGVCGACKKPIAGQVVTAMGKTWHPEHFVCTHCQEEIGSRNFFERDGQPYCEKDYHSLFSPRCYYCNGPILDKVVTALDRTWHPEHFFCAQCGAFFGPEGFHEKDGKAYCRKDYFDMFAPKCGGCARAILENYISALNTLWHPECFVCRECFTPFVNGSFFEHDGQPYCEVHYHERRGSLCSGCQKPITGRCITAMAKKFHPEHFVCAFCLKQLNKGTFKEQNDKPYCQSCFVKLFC

NIH-v-Src fibroblasts = test: EGF-stimulated cell migration of transformed cells; type: cell-based; settings: 10 ng/ml EGF, tracked 6 h before and 6 h after addition
Protocol: as §1, §2

FAK = biological target: T2, FAK (Mus musculus, UniProt P34152); test: Reversibility of FAK displacement after compound washout; type: cell-based; settings: 4 µM for 1 h
T2 construct: expressed in transfected cells; host or cells: FAK-/- (p53-/-) mouse embryonic fibroblasts stably re-expressing GFP-FAK
T2 sequence (P34152 whole entry): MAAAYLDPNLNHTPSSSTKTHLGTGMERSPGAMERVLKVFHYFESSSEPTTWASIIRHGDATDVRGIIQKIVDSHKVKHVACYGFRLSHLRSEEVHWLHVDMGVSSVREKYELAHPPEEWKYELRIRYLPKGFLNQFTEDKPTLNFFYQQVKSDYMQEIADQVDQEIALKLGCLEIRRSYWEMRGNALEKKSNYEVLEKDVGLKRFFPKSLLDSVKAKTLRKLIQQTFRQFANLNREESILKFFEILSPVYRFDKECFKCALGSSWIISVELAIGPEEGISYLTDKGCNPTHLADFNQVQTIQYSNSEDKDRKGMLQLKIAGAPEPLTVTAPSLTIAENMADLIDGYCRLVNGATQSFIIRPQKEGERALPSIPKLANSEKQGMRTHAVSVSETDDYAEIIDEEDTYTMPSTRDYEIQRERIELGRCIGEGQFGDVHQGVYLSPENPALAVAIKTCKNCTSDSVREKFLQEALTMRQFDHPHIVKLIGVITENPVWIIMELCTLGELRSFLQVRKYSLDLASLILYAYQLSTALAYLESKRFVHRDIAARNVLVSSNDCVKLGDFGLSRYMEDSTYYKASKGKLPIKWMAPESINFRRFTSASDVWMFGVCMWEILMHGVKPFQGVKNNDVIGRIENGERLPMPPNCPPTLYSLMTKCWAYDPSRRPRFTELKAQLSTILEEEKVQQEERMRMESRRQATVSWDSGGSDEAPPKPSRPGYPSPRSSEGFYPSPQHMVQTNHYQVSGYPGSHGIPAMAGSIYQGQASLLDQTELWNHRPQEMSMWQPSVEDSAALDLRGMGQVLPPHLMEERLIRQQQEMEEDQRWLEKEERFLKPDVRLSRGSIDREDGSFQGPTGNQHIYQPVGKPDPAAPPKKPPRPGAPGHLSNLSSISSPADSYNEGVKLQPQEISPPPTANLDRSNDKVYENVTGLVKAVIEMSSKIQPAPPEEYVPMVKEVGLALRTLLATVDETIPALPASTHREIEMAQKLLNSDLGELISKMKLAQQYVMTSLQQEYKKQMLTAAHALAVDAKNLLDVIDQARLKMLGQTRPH
Protocol: In order to analyze whether FAK or its binding partner paxillin are degraded after displacement, serum-starved GFP-FAK MEFs were stimulated with normal growth medium in presence of increasing concentrations of Mb31. After 30 min cells were lysed and protein levels were determined by immunoblotting. […] In line with this, in vitro activity of purified FAK kinase domain was not altered in presence of Mb31 (Figure 8). […] Considering, that paxillin and FAK are not degraded in Mb31 treated GFP-FAK MEFs the inventors further investigated whether FAK displacement is reversible. GFP-FAK MEFs were seeded on fibronectin and treated with 4 µM Mb31 for 1 h. Following compound washout, cells were incubated for 1 h and fixed. […] To strengthen the hypothesis of FAK relocalization, in a second approach de novo protein synthesis was blocked with cycloheximide. Again, FAK containing focal adhesions could be clearly identified in the cell periphery.
MEFs were seeded on fibronectin fragment (4 µg/ml in PBS) in multi-well plates (Greiner Bio-One) and incubated for 4 h to allow spreading. Cells were fixed and permeabilized with MeOH at -20°C after pre-fixation with 4% paraformaldehyde. […] Cells were washed again with PBS to remove excess antibodies and were imaged using a Leica AF6000LX fluorescence microscope. […]

- paxillin displacement in FAK knockout MEFs (paxillin; 30 min): efficiently displaced
- concentration efficiently displacing paxillin (paxillin; FAK-/- MEF cells, 30 min, 1, 10, or 20 µM): > 1 µM
- FAK displacement in treated cells (FAK; before washout): completely displaced
- FAK localization after compound washout (FAK; washout, 1 h incubation): FAK relocalized to focal adhesions
SMILES: O=[N+]([O-])C=Cc1cc(Br)cs1 [FootLocker 1, 4-bromo-2-(2-nitrovinyl)thiophene]
- nascent adhesion formation and mobility of mature adhesions (focal adhesions): nascent adhesion formation was absent and mature adhesions were immobile
- cell velocity after treatment of migrating cells (GFP-FAK MEFs; added after 5 h tracking, 3 µM or more, further 5 h): 0.11 µm/min
- cell velocity (GFP-FAK MEFs; 2 µM): 0.11 µm/min
- cell velocity (GFP-FAK MEFs; 3 µM): 0.07 µm/min
- migration of EGF-stimulated cells (NIH-v-Src fibroblasts): efficiently inhibit the migration
